These results are taken from patent US9249085B2, “Aniline derivatives, their preparation and their therapeutic application” (FOVEA PHARMACEUTICALS, priority 2011, dated 2016).

The target of the test is recombinant human prostanoid EP2 receptor (Homo sapiens (Human), UniProt P43116). As to the kind of experiment: Human prostanoid EP2 receptor cellular functional assay (cAMP, HTRF). It is filed as cell-based. The settings on record: for EC50: CHO cells expressing recombinant human EP2, cAMP by HTRF, 30 min, 37° C., read-out: In vitro functional assay EP2 (h) EC50; for In vitro functional assay EP2 (h) % response: percent of control specific agonist response (10 μM PGE2). The method, then: Test 1.2: Human Prostanoid EP2 Receptor Cellular Functional Assay
Human CHO cells expressing the recombinant human prostanoid EP2 receptor were suspended in assay medium (HBSS buffer (Invitrogen) containing 20 mM HEPES (pH7.4) and 500 μM isobutyl-methylxanthine IBMX) and plated out to yield approximately 1×10^4 cells/well in a 96-well. Following this, cells were incubated with agonists for 30 min in the presence of the test compounds. For stimulated control measurements, separate assay wells contain 10 μM PGE2 (control specific agonist). All incubations were carried out at 37° C. in a 5% CO2 atmosphere. Following incubation, the amount of cAMP in each well was determined by HTRF method. The cells are lysed and the fluorescence acceptor (D2-labeled cAMP) and fluorescence donor (anti-cAMP antibody labeled with europium cryptate) are added. After 60 min at room temperature, the fluorescence transfer is measured at λ ex=337 nm and λ em=620 and 665 nm using a microplate reader (Rubystar, BMG).
The cAMP concentration is determined by dividing the signal measured at 665 nm by that measured at 620 nm (ratio).
The standard reference agonist PGE2 was tested at several concentrations to generate a concentration-response curve to determined EC50.
Analysis and Expression of Results
The results are expressed as a percent of control specific agonist response ((measured specific response/control specific agonist response)×100) obtained in the presence of the test compounds. The EC50 values (concentration producing a half-maximal specific response) were determined by non-linear regression analysis of the concentration-response curves generated with mean replicate values using Hill equation curve fitting (Y=D+[(A−D)/(1+(C/C50)nH)], where Y=specific response, D=minimum specific response, A=maximum specific response, C=compound concentration, and C50=EC50 and nH=slope factor). This analysis was performed using a software developed at Cerep (Hill software) and validated by comparison with data generated by the commercial software SigmaPlot® 4.0 for Windows® (© 1997 by SPSS Inc.).

recombinant human prostanoid EP2 receptor, sequence (P43116 whole entry): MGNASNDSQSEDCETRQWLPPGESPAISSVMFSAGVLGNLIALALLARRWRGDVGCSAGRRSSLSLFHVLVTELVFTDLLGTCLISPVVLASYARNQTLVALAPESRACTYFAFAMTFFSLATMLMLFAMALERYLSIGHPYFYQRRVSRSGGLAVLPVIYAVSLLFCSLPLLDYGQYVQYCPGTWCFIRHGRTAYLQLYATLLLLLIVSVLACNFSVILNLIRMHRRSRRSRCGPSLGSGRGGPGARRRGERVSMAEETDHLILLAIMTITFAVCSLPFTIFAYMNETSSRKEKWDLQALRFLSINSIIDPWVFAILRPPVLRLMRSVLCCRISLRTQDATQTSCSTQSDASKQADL

With `Cc1cc(-c2ccc(F)c(F)c2)cc(CNc2c(F)ccc(OCC(=O)O)c2F)c1C` [I(aq), 2-[3-[[5-(3,4-difluorophenyl)-2,3-dimethyl-phenyl]methylamino]-2,4-difluoro-phenoxy]acetic acid], the EC50 (usually the concentration that produces a half-maximal response) stood at 2 nM and the “In vitro functional assay EP2 (h) % response” value came out at 31%.
With `Cc1c(F)cc(-c2cccc(F)c2)cc1CNc1c(F)ccc(OCC(=O)O)c1C` [I(av), 2-[4-fluoro-3-[[3-fluoro-5-(3-fluorophenyl)-2-methyl-phenyl]methylamino]-2-methyl-phenoxy]acetic acid], the concentration giving a half-maximal response (EC50) was determined as 5 nM and the “In vitro functional assay EP2 (h) % response” value came out at 97%.
As to `Cc1cc(CNc2c(C)ccc(OCC(=O)O)c2C)c(F)c(-c2cccc(F)c2)c1` [I(am), 2-[3-[[2-Fluoro-3-(3-fluorophenyl)-5-methyl-phenyl]methylamino]-2,4-dimethyl-phenoxy]acetic acid], the 50% effective concentration (EC50) amounted to 3 nM and the “In vitro functional assay EP2 (h) % response” value was determined as 87%.
Taken in the same sequence, the figures for `Cc1c(OCC(=O)O)ccc(F)c1NCc1cc(-c2cccc(F)c2)ccc1F` [I(m), 2-[4-Fluoro-3-[[2-fluoro-5-(3-fluorophenyl)phenyl]methylamino]-2-methyl-phenoxy]acetic acid] were 10 nM and 89%.
`Cc1cc(CNc2c(F)ccc(OCC(=O)O)c2F)c(F)c(-c2cccc(F)c2)c1` [I(g), 2-[2,4-difluoro-3-[[2-fluoro-3-(3-fluorophenyl)-5-methyl-phenyl]methylamino]phenoxy]acetic acid]: the EC50 amounted to 55 nM and the “In vitro functional assay EP2 (h) % response” value was 80%.
On to `Cc1cc(-c2ccccc2)cc(CNc2c(F)ccc(OCC(=O)O)c2F)c1C` [I(au), 2-[3-[(2,3-dimethyl-5-phenyl-phenyl)methylamino]-2,4-difluoro-phenoxy]acetic acid], for which the EC50 worked out at 15 nM and the “In vitro functional assay EP2 (h) % response” value stood at 81%.
Taken in the same sequence, the figures for `O=C(O)COc1ccc(F)c(NCc2cc(-c3ccc(F)c(F)c3)ccc2F)c1F` [I(w), 2-[3-[[5-(3,4-difluorophenyl)-2-fluoro-phenyl]methylamino]-2,4-difluoro-phenoxy]acetic acid] were 14 nM and 40%.
For the molecule `Cc1cc(CNc2c(F)ccc(OCC(=O)O)c2C)cc(-c2cccc(F)c2)c1` [I(ae), 2-[4-fluoro-3-[[3-(3-fluorophenyl)-5-methyl-phenyl]methylamino]-2-methyl-phenoxy]acetic acid], the EC50 came to 3 nM and the “In vitro functional assay EP2 (h) % response” value is listed as 83%.
Consider `Cc1ccc(OCC(=O)O)c(C)c1NCc1cc(-c2cccc(F)c2)ccc1F` [I(j), 2-[3-[[2-Fluoro-5-(3-fluorophenyl)phenyl]methylamino]-2,4-dimethyl-phenoxy]acetic acid], for which the EC50 was 26 nM and the “In vitro functional assay EP2 (h) % response” value was determined as 80%.
In the case of `Cc1cc(CNc2c(F)ccc(OCC(=O)O)c2C)c(F)c(-c2cccc(F)c2)c1` [I(ai), 2-[4-fluoro-3-[[2-fluoro-3-(3-fluorophenyl)-5-methyl-phenyl]methylamino]-2-methyl-phenoxy]acetic acid], the EC50 was 35 nM and the “In vitro functional assay EP2 (h) % response” value was found to be 80%.
Taken in the same sequence, the figures for `O=C(O)COc1ccc(F)c(NCc2cc(-c3cccc(F)c3)ccc2F)c1F` [I(b), 2-[2,4-Difluoro-3-[[2-fluoro-5-(3-fluorophenyl)phenyl]methylamino]phenoxy]acetic acid] were 28 nM and 82%.
For `N#Cc1cc(CNc2c(F)ccc(OCC(=O)O)c2F)cc(-c2cccc(F)c2)c1` [I(x), 2-[3-[[3-cyano-5-(3-fluorophenyl)phenyl]methylamino]-2,4-difluoro-phenoxy]acetic acid] the same measures were 27 nM and 45%.
Take `O=C(O)COc1ccc(F)c(NCc2cc(-c3cccc(F)c3)ccc2F)c1Cl` [I(o), 2-[2-Chloro-4-fluoro-3-[[2-fluoro-5-(3-fluorophenyl)phenyl]methylamino]phenoxy]acetic acid]: the 50% effective concentration (EC50) is 34 nM and the “In vitro functional assay EP2 (h) % response” value is 74%.
Taken in the same sequence, the figures for `Cc1c(OCC(=O)O)ccc(F)c1NCc1cc(O)cc(-c2cccc(F)c2)c1` [I(ah), 2-[4-fluoro-3-[[3-(3-fluorophenyl)-5-hydroxy-phenyl]methylamino]-2-methyl-phenoxy]acetic acid] were 8 nM and 74%.
For the molecule `O=C(O)COc1ccc(F)c(NCc2cc(F)cc(-c3cccc(F)c3)c2)c1F` [I(n), 2-[2,4-Difluoro-3-[[3-fluoro-5-(3-fluorophenyl)phenyl]methylamino]phenoxy]acetic acid], the 50% effective concentration (EC50) worked out at 52 nM and the “In vitro functional assay EP2 (h) % response” value was 86%.
Taken in the same sequence, the figures for `O=C(O)COc1ccc(F)c(NCc2cc(-c3cccc(F)c3)ccc2Cl)c1F` [I(l), 2-[3-[[2-Chloro-5-(3-fluorophenyl)phenyl]methylamino]-2,4-difluoro-phenoxy]acetic acid] were 24 nM and 76%.
Taken in the same sequence, the figures for `COc1cc(CNc2c(C)ccc(OCC(=O)O)c2C)cc(-c2cccc(F)c2)c1` [I(ap), 2-[3-[[3-(3-fluorophenyl)-5-methoxy-phenyl]methylamino]-2,4-dimethyl-phenoxy]acetic acid] were 3 nM and 89%.
For `NC(=O)c1cc(CNc2c(F)ccc(OCC(=O)O)c2F)cc(-c2cccc(F)c2)c1` [I(z), 2-[3-[[3-carbamoyl-5-(3-fluorophenyl)phenyl]methylamino]-2,4-difluoro-phenoxy]acetic acid] the same measures were 4 nM and 53%.
For the molecule `O=C(O)COc1ccc(F)c(NCc2cccc(-c3cccc(F)c3)c2)c1F` [I(e), 2-[2,4-Difluoro-3-[[3-(3-fluorophenyl)phenyl]methylamino]phenoxy]acetic acid], the EC50 amounted to 160 nM and the “In vitro functional assay EP2 (h) % response” value was 65%.
Taken in the same sequence, the figures for `Cc1cc(-c2cccc(F)c2)cc(CNc2c(F)ccc(OCC(=O)O)c2F)c1F` [I(h), 2-[2,4-difluoro-3-[[2-fluoro-5-(3-fluorophenyl)-3-methyl-phenyl]methylamino]phenoxy]acetic acid] were 13 nM and 88%.
Taken in the same sequence, the figures for `Cc1ccc(OCC(=O)O)c(C)c1NCc1cc(O)cc(-c2cccc(F)c2)c1` [I(ao), 2-[3-[[3-(3-fluorophenyl)-5-hydroxy-phenyl]methylamino]-2,4-dimethyl-phenoxy]acetic acid] were 1 nM and 76%.
As to `C[C@@H](Nc1c(F)ccc(OCC(=O)O)c1F)c1cc(-c2cccc(F)c2)ccc1F` (single isomer, unassigned) [I(as) (+ isomer)], the EC50 was found to be 18 nM and the “In vitro functional assay EP2 (h) % response” value is reported as 124%.
For `COc1cc(CNc2c(F)ccc(OCC(=O)O)c2F)cc(-c2cccc(F)c2)c1` [I(q), 2-[2,4-Difluoro-3-[[3-(3-fluorophenyl)-5-methoxy-phenyl]methylamino]phenoxy]acetic acid] the same measures were 18 nM and 70%.
For `Cc1ccc(-c2cccc(F)c2)cc1CNc1c(F)ccc(OCC(=O)O)c1F` [I(c), 2-[2,4-Difluoro-3-[[5-(3-fluorophenyl)-2-methyl-phenyl]methylamino]phenoxy]acetic acid] the same measures were 69 nM and 66%.
For `Cc1c(-c2cccc(F)c2)ccc(F)c1CNc1c(F)ccc(OCC(=O)O)c1F` [I(y), 2-[2,4-difluoro-3-[[6-fluoro-3-(3-fluorophenyl)-2-methyl-phenyl]methylamino]phenoxy]acetic acid] the same measures were 130 nM and 62%.
With `Cc1cc(-c2cc(F)cc(F)c2)cc(CNc2c(F)ccc(OCC(=O)O)c2F)c1C` [I(ar), 2-[3-[[5-(3,5-difluorophenyl)-2,3-dimethyl-phenyl]methylamino]-2,4-difluoro-phenoxy]acetic acid], the EC50 stood at 8 nM and the “In vitro functional assay EP2 (h) % response” value was 130%.
For `Cc1cc(CNc2c(C)ccc(OCC(=O)O)c2C)cc(-c2cccc(F)c2)c1` [I(aj), 2-[3-[[3-(3-fluorophenyl)-5-methyl-phenyl]methylamino]-2,4-dimethyl-phenoxy]acetic acid] the same measures were 7 nM and 79%.
